Measured values taken from patent US20180333382A1, “PHARMACEUTICAL COMPOSITIONS COMPRISING DGLA AND USE OF SAME” (DS Biopharma Limited, priority 2017, published 2018).
Read-outs that look alike come from different tables or passages of the source.

Assay: Phase one study part 1: single dose plasma PK of free and total DGLA, fasted
Type: in vivo, human
Conditions: for half-life / Tmax: both sexes, human, plasma, oral; for half-life: read-out: t1/2, median, free DGLA, baseline-corrected plasma (converted)
Experimental: A single-center, double-blind, randomized, placebo-controlled, two part Phase one study was performed in healthy male and female subjects aged 18 to 45 years inclusive. The primary objective of this study was to assess the safety and plasma pharmacokinetics (PK) of orally administered single doses and orally administered multiple doses of DS107G capsules (once daily for 28 days) in healthy subjects.
Subjects were randomly assigned in a 3:1 ratio of DG107G to placebo by block randomization. Single dose part one of the study comprised three cohorts of eight subjects each, with the addition of Cohort four based on evaluation of the safety data of Cohort three by the Safety Monitoring Committee (SMC). A single oral dose of DS107G or matching placebo was administered to fasted subjects in Cohorts one to three (500, 1000, and 2000 mg, respectively) in parallel; subjects in Cohort four were administered a dose of 4000 mg following completion of Cohort three. Subjects in Cohort two received 1000 mg or matching placebo in the fed state at 14 days after the first dose.
Safety assessments were monitored throughout the study.
In Part one of the study, subjects in Cohorts one to three were administered a single dose of study drug (either 500-, 1000-, or 2000-mg as 500-mg DS107G capsules or matching placebo capsules) in parallel on study Day 1 after at least an 8-hour fast, according to Table 20. Cohort 4 was initiated following the review of safety data from Cohort 3 by the SMC.
Analysis of populations included the following: • The Intention-to-Treat (ITT) population consists of all randomized subjects who had been administered at least 1 dose of study drug. • The Per Protocol (PP) population consists of all subjects in the ITT population who had no major protocol violation, as defined in the SAP. • The PK population contains all subjects included in the PP population who had evaluable PK data derived from plasma. A plasma concentration observation was considered a valid, evaluable measurement if the following data were available: study identification number, randomization number, date and time of sampling, dose and concentration. A series of such measurements from the same sample were considered complete if each protocol prescribed concentration was evaluable. Plasma PK data were evaluable by definition if the data contained a complete series of observations. Any missing plasma PK observation would result in incomplete PK data, thus a subject with any missing plasma PK observation was excluded from the PK population. Subjects randomized to placebo were also excluded from the PK population.

SMILES: CCCCC/C=C\C/C=C\C/C=C\CCCCCCC(=O)O [DS107G, Dihomo gamma linolenic acid]
- AUC0-24, mean, free DGLA, baseline-corrected plasma (500 mg single dose): 2728.1 ng·h/mL
- AUC0-24/Dose, mean, free DGLA, baseline-corrected plasma (500 mg single dose): 5.46 h/kL
- AUC0-24/Dose, mean, total DGLA, baseline-corrected plasma (500 mg single dose): 79.11 h/kL
- AUC0-inf, mean, free DGLA, baseline-corrected plasma (500 mg single dose): 21483.3 ng·h/mL
- AUC0-inf/Dose, mean, free DGLA, baseline-corrected plasma (500 mg single dose): 42.97 h/kL
- AUC0-inf/Dose, mean, total DGLA, baseline-corrected plasma (500 mg single dose): 8831.93 h/kL
- CL/F, mean, free DGLA, baseline-corrected plasma (500 mg single dose): 0.0306 kL/h
- Cmax, mean, free DGLA, baseline-corrected plasma (500 mg single dose): 934.6 ng/mL
- Cmax/Dose, mean, free DGLA, baseline-corrected plasma (500 mg single dose): 1.869 kL⁻¹
- Cmax/Dose, mean, total DGLA, baseline-corrected plasma (500 mg single dose): 14.400 kL⁻¹
- λz, mean, free DGLA, baseline-corrected plasma (500 mg single dose): 0.0035 h⁻¹
- λz, mean, total DGLA, baseline-corrected plasma (500 mg single dose): 0.0013 h⁻¹
- AUC0-24, mean, free DGLA, baseline-corrected plasma (1000 mg single dose): 3998.5 ng·h/mL
- AUC0-24/Dose, mean, free DGLA, baseline-corrected plasma (1000 mg single dose): 4.00 h/kL
- AUC0-24/Dose, mean, total DGLA, baseline-corrected plasma (1000 mg single dose): 215.37 h/kL
- AUC0-inf, mean, free DGLA, baseline-corrected plasma (1000 mg single dose): 218955.6 ng·h/mL
- AUC0-inf/Dose, mean, free DGLA, baseline-corrected plasma (1000 mg single dose): 218.96 h/kL
- AUC0-inf/Dose, mean, total DGLA, baseline-corrected plasma (1000 mg single dose): 4031.41 h/kL
- CL/F, mean, free DGLA, baseline-corrected plasma (1000 mg single dose): 0.1866 kL/h
- Cmax, mean, free DGLA, baseline-corrected plasma (1000 mg single dose): 1602.8 ng/mL
- Cmax/Dose, mean, free DGLA, baseline-corrected plasma (1000 mg single dose): 1.603 kL⁻¹
- Cmax/Dose, mean, total DGLA, baseline-corrected plasma (1000 mg single dose): 15.750 kL⁻¹
- λz, mean, free DGLA, baseline-corrected plasma (1000 mg single dose): 0.0487 h⁻¹
- λz, mean, total DGLA, baseline-corrected plasma (1000 mg single dose): 0.0136 h⁻¹
- AUC0-24, mean, free DGLA, baseline-corrected plasma (2000 mg single dose): 6429.0 ng·h/mL
- AUC0-24/Dose, mean, free DGLA, baseline-corrected plasma (2000 mg single dose): 3.21 h/kL
- AUC0-24/Dose, mean, total DGLA, baseline-corrected plasma (2000 mg single dose): 105.25 h/kL
- AUC0-inf, mean, free DGLA, baseline-corrected plasma (2000 mg single dose): 26877.0 ng·h/mL
- AUC0-inf/Dose, mean, free DGLA, baseline-corrected plasma (2000 mg single dose): 13.44 h/kL
- AUC0-inf/Dose, mean, total DGLA, baseline-corrected plasma (2000 mg single dose): 1138.25 h/kL
- CL/F, mean, free DGLA, baseline-corrected plasma (2000 mg single dose): 0.1339 kL/h
- Cmax, mean, free DGLA, baseline-corrected plasma (2000 mg single dose): 2074.0 ng/mL
- Cmax/Dose, mean, free DGLA, baseline-corrected plasma (2000 mg single dose): 1.037 kL⁻¹
- Cmax/Dose, mean, total DGLA, baseline-corrected plasma (2000 mg single dose): 8.867 kL⁻¹
- λz, mean, free DGLA, baseline-corrected plasma (2000 mg single dose): 0.0200 h⁻¹
- λz, mean, total DGLA, baseline-corrected plasma (2000 mg single dose): 0.0084 h⁻¹
- AUC0-24, mean, free DGLA, baseline-corrected plasma (4000 mg single dose): 9436.8 ng·h/mL
- AUC0-24/Dose, mean, free DGLA, baseline-corrected plasma (4000 mg single dose): 2.36 h/kL
- AUC0-24/Dose, mean, total DGLA, baseline-corrected plasma (4000 mg single dose): 109.44 h/kL
- AUC0-inf, mean, free DGLA, baseline-corrected plasma (4000 mg single dose): 17113.6 ng·h/mL
- AUC0-inf/Dose, mean, free DGLA, baseline-corrected plasma (4000 mg single dose): 4.28 h/kL
- AUC0-inf/Dose, mean, total DGLA, baseline-corrected plasma (4000 mg single dose): 1493.38 h/kL
- CL/F, mean, free DGLA, baseline-corrected plasma (4000 mg single dose): 0.2420 kL/h
- Cmax, mean, free DGLA, baseline-corrected plasma (4000 mg single dose): 3021.8 ng/mL
- Cmax/Dose, mean, free DGLA, baseline-corrected plasma (4000 mg single dose): 0.755 kL⁻¹
- Cmax/Dose, mean, total DGLA, baseline-corrected plasma (4000 mg single dose): 6.471 kL⁻¹
- λz, mean, free DGLA, baseline-corrected plasma (4000 mg single dose): 0.0603 h⁻¹
- λz, mean, total DGLA, baseline-corrected plasma (4000 mg single dose): 0.0102 h⁻¹
- half-life (500 mg single dose): 206 h
- Tmax (500 mg single dose, read-out: tmax, median, free DGLA, baseline-corrected plasma): 4 h
- half-life (1000 mg single dose): 28.3 h
- Tmax (1000 mg single dose, read-out: tmax, median, free DGLA, baseline-corrected plasma): 4 h
- half-life (2000 mg single dose): 57.3 h
- Tmax (2000 mg single dose, read-out: tmax, median, free DGLA, baseline-corrected plasma): 4 h
- half-life (4000 mg single dose): 67.5 h
- Tmax (4000 mg single dose, read-out: tmax, median, free DGLA, baseline-corrected plasma): 4 h
- Tmax (single dose 500-4000 mg, read-out: median time to maximum concentration (Tmax), free DGLA): 4 h
- dose dependence of mean baseline-corrected Cmax and AUC0-24, free and total DGLA (single dose 500-4000 mg): increased in a linear manner
